{"source": "a melting point compilation (Tetko et al.; mined from patent text by program, amines drawn as free bases though some values may be those of a salt)", "data": [{"units": {"melting point": "°C"}, "values": [{"smiles": "CN1CC(c2ccc(Cl)cc2)C(=O)C(c2cccc(C(F)(F)F)c2)C1", "note": "(configuration not stated)", "melting point": 116}, {"smiles": "O=C(O)c1csnc1-c1ccc(Cl)cc1", "melting point": 182}, {"smiles": "O=CN1CCc2ccccc2CC1", "melting point": "65 to 66"}, {"smiles": "O=C1c2c(-c3ccccc3)cc(CNC3CC3)nc2OCCN1Cc1cc(C(F)(F)F)cc(C(F)(F)F)c1", "melting point": "129 to 131"}, {"smiles": "COc1ccc(-c2c(CCN3CCN(c4cc(C)ccn4)CC3)c3cccc4c3n2CCC4)cc1", "melting point": 120}, {"smiles": "CS(=O)(=O)c1cccc(C(=O)Nc2ccc(-n3nc(C(F)(F)F)cc3C3CC3)cc2)c1", "melting point": "178 to 184"}, {"smiles": "CC(C)CNc1nc(-c2ccccc2)c(Br)n2ccnc12", "melting point": 138}, {"smiles": "CC(C)c1ccc2c(c1)NC(=S)C2=O", "melting point": "169 to 180"}, {"smiles": "CC(c1oc2ccccc2c(=O)c1-c1cccc(F)c1)n1nc(-c2cccc(OC(F)F)c2)c2c(N)ncnc21", "note": "(configuration not stated)", "melting point": "176 to 179"}, {"smiles": "COc1cc2c(c(Cl)c1Cl)C(=O)C(CCCCl)(CCC(C)=O)C2", "note": "(configuration not stated)", "melting point": "120 to 122"}, {"smiles": "CC1(C)C(=O)NC(=O)c2c1ccc(NC(=O)c1ccccc1)c2[N+](=O)[O-]", "melting point": "> 270"}, {"smiles": "COc1cc2c(-c3cc4cccnc4[nH]3)cn(CCN3CCOCC3)c2cc1OC", "melting point": 218}, {"smiles": "CCOS(=O)(=O)c1ccc(-c2ccc(CCl)cc2)cc1", "melting point": "112 to 116"}, {"smiles": "CCOC(=O)c1c(N)sc(-c2ccc([N+](=O)[O-])cc2)c1C", "melting point": "117 to 119"}, {"smiles": "Cc1cccc(N2CCN(CCc3ccc(-c4cccc(N)n4)cc3)CC2)c1", "melting point": "158 to 160"}, {"smiles": "COc1cc(OC)cc(C2=N[C@H]3CCN(C)C[C@H]3c3ccccc32)c1", "note": "(relative stereo)", "melting point": "123 to 124"}, {"smiles": "CNCCC(O)(c1ccc(Br)cc1)c1ccccn1", "note": "(configuration not stated)", "melting point": "81 to 88"}, {"smiles": "COc1cc(-c2nc3ccc(OCCCN4CCCCC4)cc3n2Cc2ccccc2C(F)(F)F)cc(OC)c1OC", "melting point": 138}, {"smiles": "CCN(CC)CCn1c(Cl)c(C(=O)NC)c2ccccc21", "melting point": "103 to 104"}, {"smiles": "CCOC(=O)c1sc(OCC)nc1-c1cccc(C(F)(F)F)c1", "melting point": "69 to 72"}, {"smiles": "COc1ccc(C#Cc2cc(Cl)cc3c2OC(C(F)(F)F)C(C(=O)O)=C3)cc1", "note": "(configuration not stated)", "melting point": "218 to 219"}, {"smiles": "C=CCc1cc(C(=O)OC)ccc1OCCCCCOc1ccc2c(=O)cc(C(=O)OC)oc2c1CCC", "melting point": "87 to 88"}, {"smiles": "Cc1cncc(C(=O)OC(C)c2nc3c(c(=O)n(C)c(=O)n3C)n2C)c1", "note": "(configuration not stated)", "melting point": 110}, {"smiles": "c1csc(CNc2nc(-n3ccnc3)nc3ccccc23)c1", "melting point": "234 to 235"}, {"smiles": "Cn1ccnc1-c1ccccc1Nc1nc(Nc2ccc3c(c2)CCC(=O)CC3)ncc1Cl", "melting point": 149}, {"smiles": "CC(=O)n1ncc2c(OCc3ccccc3)cccc21", "melting point": 97}, {"smiles": "O=C(N[C@@H](Cc1c[nH]c2ccccc12)C(=O)O)C(CS)C(F)(F)F", "note": "(some centres not stated)", "melting point": "144 to 147"}, {"smiles": "OCCCC1=NN(c2nc3ccccc3s2)C(O)(c2ccc(Cl)cc2)C1", "note": "(configuration not stated)", "melting point": "132 to 134"}, {"smiles": "CCC(NS(=O)(=O)c1ccc(Cl)cc1)c1ccccc1", "note": "(configuration not stated)", "melting point": "140 to 142"}, {"smiles": "O=C(Nc1ccc(Cl)nc1Cl)c1ccccc1O", "melting point": "179 to 186"}, {"smiles": "O=C(O)CCCC(=O)Nc1cccc(-c2ccnc3c(C(=O)c4cccs4)cnn23)c1", "melting point": "189 to 190"}, {"smiles": "COc1c(Br)cc(Br)cc1CC#N", "melting point": "87 to 88"}, {"smiles": "COc1ccc(-c2nc(C(F)F)oc2-c2ccc(OCCNC(N)=O)cc2)cc1", "melting point": "146 to 149"}, {"smiles": "Nc1nc(Cl)c(Cl)c(NCC2(CO)CCC2)n1", "melting point": "179 to 181"}, {"smiles": "O=c1oc(-c2ccccc2)cc(O)c1Sc1c(O)cc(-c2ccccc2)oc1=O", "melting point": "> 240"}, {"smiles": "COCOc1ccc([N+](=O)[O-])c(C=O)c1", "melting point": "68 to 69"}, {"smiles": "Cc1cccc(CCCCCCCCC(=O)O)c1", "melting point": "39 to 40"}, {"smiles": "FC(F)(F)c1cc(Cl)c(-n2cc(I)nn2)c(Cl)c1", "melting point": "194 to 195"}, {"smiles": "O=C(Nc1cc(Cl)cc(Cl)c1)c1cc2ccccc2cc1O", "melting point": "254 to 255"}, {"smiles": "COc1cc(C)c(OC)c(C=C(C)[N+](=O)[O-])c1C", "melting point": "48 to 49"}, {"smiles": "CCOC(=O)N=C1N(c2c(C)cccc2C)CC(C)N1c1c(C)cccc1C", "note": "(configuration not stated)", "melting point": "124 to 125"}, {"smiles": "CN(C)CCOC(=O)C1CCc2c([nH]c3ccc(Cl)cc23)C1", "note": "(configuration not stated)", "melting point": "123 to 124"}, {"smiles": "CCSc1nnc(S)n1N", "melting point": 172}, {"smiles": "Cn1nc(C(F)(F)F)c(C(=O)Nc2ccccc2)c1-c1ccccc1O", "melting point": 191}, {"smiles": "CN1Sc2sccc2C=C1CO", "melting point": "128 to 130"}, {"smiles": "O=C(O)CC(=O)Oc1cccc(-c2cn3c(n2)sc2ccccc23)c1", "melting point": "159 to 161"}, {"smiles": "OC(c1cc(F)ccc1F)c1ccncc1Cl", "note": "(configuration not stated)", "melting point": "169 to 170"}, {"smiles": "CC(=O)SCC(C)C(=O)NC(CCCNC(=N)N)C(=O)O", "note": "(configuration not stated)", "melting point": 133}, {"smiles": "CN(CC(O)(CO)c1ccccc1)S(=O)(=O)c1ccc(Cl)cc1", "note": "(configuration not stated)", "melting point": "122 to 123"}, {"smiles": "CSc1nc(-c2cc(C(C)(C)C)c(O)c(C(C)(C)C)c2)c(-c2ccccc2)[nH]1", "melting point": "129 to 131"}, {"smiles": "COC1OCC[C@@H]1NC(=O)[C@H](CC(C)C)NC(=O)[C@H](CC(C)C)NC(=O)c1ccc2c(c1)Nc1ccccc1O2", "note": "(some centres not stated)", "melting point": "178 to 179"}, {"smiles": "O=C1NC(Cc2c[nH]c3ccccc23)C(=O)N1CCCN1CCOCC1", "note": "(configuration not stated)", "melting point": "158 to 160"}, {"smiles": "Cc1cc2c(-c3ccccc3)c(CCNC(=O)OCc3ccccc3)n(C)c(=O)c2cc1C", "melting point": "227 to 228"}, {"smiles": "CC(=O)Oc1ccc(-n2c(-c3ccccc3)cc3c2CCc2ccccc2-3)cc1C(=O)O", "melting point": "194 to 196"}, {"smiles": "CCN(CC)C(=O)COc1ccc(C(O)(CC)c2cccc(C(F)(F)F)c2)cc1", "note": "(configuration not stated)", "melting point": "83 to 84"}, {"smiles": "Nc1ccccc1C(=O)OCN1C(=O)c2ccccc2C1=O", "melting point": "160 to 162"}, {"smiles": "Nc1c(F)c(-c2ccc(Cl)cc2)nc(C=O)c1Cl", "melting point": "166 to 169"}, {"smiles": "CCC(C)(CC)CC(=O)C(OC(=C1C(=O)N(C(N)=O)c2cc(Cl)c(F)cc21)c1cccs1)C(=O)O", "note": "(configuration not stated)", "melting point": "124 to 125"}, {"smiles": "CNc1cc(Oc2nn(C)c(C(F)(F)F)c2Cl)ccc1C#N", "melting point": "115 to 117"}, {"smiles": "O=C(O)c1cnc2cccc(O)c2c1", "melting point": "> 260"}, {"smiles": "Cc1ccc(NC(=O)c2ccc(CN3CCOCC3)c(C(F)(F)F)c2)cc1-c1ccc2cnncc2c1", "melting point": "160 to 162"}, {"smiles": "CN(C)S(=O)(=O)c1ccc(C(N)=O)c(C(F)(F)F)c1", "melting point": "149 to 156"}, {"smiles": "O=c1[nH]c2ccc(-c3cc(=O)c4ccccc4o3)cc2o1", "melting point": 348}, {"smiles": "CCCCNC(=O)c1ccc(S(=O)(=O)NCCCC)o1", "melting point": 69.4}, {"smiles": "COc1cccc2c1nc(C(F)F)n2-c1nc(Nc2cccnc2)nc(N2CCOCC2)n1", "melting point": "221 to 223"}, {"smiles": "COc1ccc2c(c1)C(C(=O)N(Cc1ccc(Br)cc1)c1ccc(C(C)C)cc1)CCC2", "note": "(configuration not stated)", "melting point": 85}, {"smiles": "CC(C)c1cc(CC2SCNC2=O)cc(C(C)C)c1O", "note": "(configuration not stated)", "melting point": "136 to 139"}, {"smiles": "Cc1cc(Br)nc(Br)c1", "melting point": 77}, {"smiles": "C=CCN1CC(C)N(C(c2cccnc2)c2cccc(O)c2)CC1C", "note": "(configuration not stated)", "melting point": "115 to 118"}, {"smiles": "Cc1c(-c2ccc(OCc3ccccc3)cc2)n(Cc2ccc(OCCBr)cc2)c2ccc(OCc3ccccc3)cc12", "melting point": "131 to 134"}, {"smiles": "OCc1ccc(OCc2ccccc2)c2c1OCCO2", "melting point": 106}, {"smiles": "COc1ccc(COc2ccc(C(=O)N3CCc4cc(/C=C/CN(C)C)ccc43)cc2)cc1", "melting point": "164 to 166"}, {"smiles": "Cc1ccc(-c2ccc3c(c2)OCO3)cc1", "melting point": "57 to 60"}, {"smiles": "CCOC(=O)CCCCOc1ccc(OC)c(OC)c1C=O", "melting point": "105 to 107"}, {"smiles": "CS(=O)(=O)c1cccc(NC(=O)c2cnn3c(C4CC4)cc(-c4ccc(Cl)cc4)nc23)c1", "melting point": "235 to 238"}, {"smiles": "Cc1cc(Cn2nc(C(F)(F)C(F)(F)F)nc2C(F)(F)F)ccc1NC(=O)c1cccc(Cl)c1C(=O)NC(C)(C)C=NO", "melting point": "203 to 206"}, {"smiles": "CN1CCN2c3ccccc3C(O)c3ccccc3C2C1", "note": "(configuration not stated)", "melting point": "137 to 138"}, {"smiles": "CCc1cc(OCc2ccc(-c3ccccc3C(=O)O)cc2)c2ccccc2n1", "melting point": "204 to 205"}, {"smiles": "CC(C)=CCn1c(-c2ccc3c(c2)OCO3)nc2ccccc21", "melting point": "73.8 to 76"}, {"smiles": "O=c1[nH]c2ccc(CCN3CCN(c4cccc5c4CCCC5)CC3)cc2o1", "melting point": 200}, {"smiles": "CCCOC1(C=O)C=CCC(OC)(N2CCC(c3noc4cc(F)ccc34)CC2)C1O", "note": "(configuration not stated)", "melting point": "107 to 108"}, {"smiles": "O=C(O)CSc1nc(-c2ccccc2)c(-c2ccccc2)o1", "melting point": "66 to 68"}, {"smiles": "COCc1cccc(-c2c(Cl)ncn2-c2ccc(S(C)(=O)=O)cc2)c1", "melting point": 178}, {"smiles": "CCN1C(=O)c2cscc2Nc2ccccc21", "melting point": "175 to 177"}, {"smiles": "N=C(N)NCCCOc1ccc2cc(CC(=O)O)c(=O)n(Cc3ccccc3)c2c1", "melting point": "132 to 134"}, {"smiles": "CC(=O)Oc1ccc(C=Cc2cc(OC(C)=O)c(OC(C)=O)c(OC(C)=O)c2)cc1", "melting point": "162 to 163"}, {"smiles": "Cc1nc(NN)nnc1-c1ccccc1", "melting point": "136 to 138"}, {"smiles": "CCCCCCCCNC1=NS(=O)(=O)c2cnccc2N1", "melting point": "176 to 179"}, {"smiles": "CC1Nc2ccc(-c3cc(F)cc(C#N)c3)cc2C(C)(C)O1", "note": "(configuration not stated)", "melting point": "163 to 164"}, {"smiles": "COc1cc(Nc2ncc3c(n2)-c2ccccc2CCC3)cc(OC)c1OC", "melting point": "201 to 202"}, {"smiles": "CC(=O)NC[C@H]1CN(c2ccc3c(c2)CCC(C)N3)C(=O)O1", "note": "(some centres not stated)", "melting point": "158 to 159"}, {"smiles": "CC(=O)NC[C@H]1CN(c2ccc(N3CCC(=C(C#N)Cc4ccccc4)CC3)c(F)c2)C(=O)O1", "melting point": "98 to 100"}, {"smiles": "CCCCc1nc2c(c(=O)[nH]1)CN(C(=O)C(C)(C)C)CC2", "melting point": "167 to 172"}, {"smiles": "O=c1nc(-c2ccccc2)c2cc([N+](=O)[O-])ccc2n1CC(F)(F)F", "melting point": "195 to 196"}, {"smiles": "O=CC=Cc1cnc(-c2ccccc2)s1", "melting point": 104}, {"smiles": "CC(=O)Nc1ccc(F)c(-c2cccnc2)c1F", "melting point": "154 to 155"}, {"smiles": "O=C(c1cccnc1)c1ccc2c(c1)CN1C=CNC1=N2", "melting point": 275}, {"smiles": "COC(=O)c1nc2cc(F)ccc2c(O)c1C(=O)OC", "melting point": 228}, {"smiles": "Cc1cn(COC(CO)CO)c(=O)[nH]c1=O", "melting point": "156 to 157"}, {"smiles": "CC(=O)NCCC1CNc2ccc3c(c21)CCCO3", "note": "(configuration not stated)", "melting point": "137 to 138"}, {"smiles": "Cc1sc2c(Cl)c(Cl)c(OCC(=O)O)cc2c1C", "melting point": "218 to 219"}, {"smiles": "CCOC(=O)c1ncoc1-c1cc(Cl)nc(Cl)c1", "melting point": "108 to 109"}]}]}
